Patent publication US20030181436A1, “Treatment for AIDS, HIV, and other related diseases and compounds for use therewith” (priority 2001, published 2003)

Test system: CEM-SS cells chronically infected with SK-1
Assay: Chronically infected CEM/SK-1 cell assay, cell viability by MTS
Assay type: cell-based
Method: At assay termination the assay plates were stained with the soluble tetrazolium-based dye MTS (CellTiter® Reagent, Promega) to determined cell viability and quantify compound toxicity. […] At termination of the assay 20 μL of MTS reagent was added per well. The wells were incubated for 4 h at 37° C., 5% CO2. Adhesive plate scalers were used in place of the lids, the sealed plate was inverted several times to mix the soluble formazan product and the plate was read spectrophotometrically at 490 nm with a 650 nm reference wavelength on a Molecular Devices Vmax plate reader.
The chronically infected CEM cells were cultured and the assay performed in RPMI 1640 supplemental with 10% Fetal Bovine Serum (heat inactivated), 2 mM L-glutamine, 100 U/mL penicillin, […] and 10 ug/mL gentamycin. On day 3 cell-free supernatants were collected and cell viability measured by MTS dye reduction.

Zinc Iodiscorbate [Compound Z]
TOXICITY VALUES (MTS) MEAN (0.625 μG/Ml): 1.757 O. D.
TOXICITY VALUES (MTS) MEAN (2 μG/Ml): 1.655 O. D.
% CC (6.25 μG/Ml): 35.8%
TOXICITY VALUES (MTS) MEAN (6.25 μG/Ml): 0.631 O. D.
% CC (20 μG/Ml): 31.4%
TOXICITY VALUES (MTS) MEAN (20 μG/Ml): 0.553 O. D.
% CC (62.5 μG/Ml): 17.1%
TOXICITY VALUES (MTS) MEAN (62.5 μG/Ml): 0.301 O. D.
% CC (200 μG/Ml): 0.6%
TOXICITY VALUES (MTS) MEAN (200 μG/Ml): 0.011 O. D.
TC50 (CEMSK1 chronic infection): ITC50 (ug/ml) = 5.22
